# Where two headings read alike, the source gives them in different places. *1 amine or outer side, *2 acyl side, *3 side chain or, on linkers, in order; H or OH if unused. Where a SMILES comes first, the peptide text is derived from it. Where no end group is shown, it is not given here. [ ]: non-standard residue; d: D form. γGlu = O=C(O)[C@H](CCC(=O)[*:2])N[*:1]; Cya = N[C@@H](CS(=O)(=O)O)C(=O)O
# Biological target: HLA-A*02:01 (Homo sapiens, UniProt P04439, D140Y/D185E/D98H/E176V/E277Q/G131W/G231S/I119V/I121R/I166T/I218V/L300P/L318F/N151K/N90K/P208A/P217A/Q86G/Q94H/R138H/R169H/T345S)
# Assay: HLA-peptide competition binding assay, A*02:01
# [1] = post-translationally modified insulin-derived peptide, radiolabeled ligand competition, purified MHC, two-day incubation, three or more independent experiments, read-out: A*02:01 binding, Modified
# [2] = post-translationally modified insulin peptide, competition binding assay, a dash indicates IC50 >40,000 nM, read-out: A*02:01 binding (IC50 nM) Modified
# [3] = read-out: IC50 nM, target assay A*02:01
# [4] = unmodified (WT) insulin peptide, competition binding assay, a dash indicates IC50 >40,000 nM, read-out: A*02:01 binding (IC50 nM) WT
# [5] = unmodified (wild type) insulin-derived peptide, radiolabeled ligand competition, purified MHC, two-day incubation, three or more independent experiments, read-out: A*02:01 binding, WT
# [6] = read-out: A*02:01 binding (IC50 nM) WT
# [7] = read-out: A*02:01 binding (IC50 nM) Modified, post-translationally modified insulin peptide, competition binding assay, a dash indicates IC50 >40,000 nM
compound,measurement,setting,value
CC(C)C[C@H](NC(=O)[C@@H](N)Cc1ccc(O)cc1)C(=O)N[C@H](C(=O)N[C@@H](CS(=O)(=O)O)C(=O)NCC(=O)N[C@@H](CCC(=O)O)C(=O)N[C@@H](CCCNC(=N)N)C(=O)NCC(=O)N[C@@H](Cc1ccc(O)cc1)C(=O)O)C(C)C [YLVBGERGY] (H-YLV[Cya]GERGY-OH),IC50,[1],3240 nM
CC(C)C[C@H](NC(=O)[C@H](Cc1c[nH]cn1)NC(=O)CC[C@H](N)C(=O)O)C(=O)N[C@@H](CS)C(=O)NCC(=O)N[C@@H](CO)C(=O)N[C@@H](Cc1c[nH]cn1)C(=O)N[C@@H](CC(C)C)C(=O)N[C@H](C(=O)N[C@@H](CCC(=O)O)C(=O)O)C(C)C [ZHLCGSHLVE] (γGlu-HLCGSHLVE-OH; N-terminus and C-terminus assumed),IC50,[2],> 40000 nM
CC(C)C[C@H](NC(=O)[C@H](Cc1c[nH]cn1)NC(=O)CC[C@H](N)C(=O)O)C(=O)N[C@@H](CS)C(=O)NCC(=O)N[C@@H](CO)C(=O)N[C@@H](Cc1c[nH]cn1)C(=O)N[C@@H](CC(C)C)C(=O)N[C@H](C(=O)O)C(C)C [ZHLCGSHLV] (γGlu-HLCGSHLV-OH; N-terminus and C-terminus assumed),IC50,[2],> 40000 nM
CC[C@H](C)[C@H](NC(=O)[C@H](CO)NC(=O)[C@@H](NC(=O)[C@H](CS)NC(=O)[C@H](CS)NC(=O)[C@H](CCC(N)=O)NC(=O)[C@H](CCC(=O)O)NC(=O)[C@@H](NC(=O)[C@@H](NC(=O)CN)[C@@H](C)CC)C(C)C)[C@@H](C)O)C(=O)O [reference compound] (H-GIVEQCCTSI-OH),IC50,[3],7450 nM
CC[C@H](C)[C@H](NC(=O)[C@H](CC(N)=O)NC(=O)[C@H](C)NC(=O)[C@H](CC(C)C)NC(=O)[C@@H](N)CCCCN)C(=O)N[C@@H](CCC(N)=O)C(=O)N[C@@H](CS)C(=O)N[C@@H](CC(C)C)C(=O)N[C@@H](CS)C(=O)N[C@@H](CC(C)C)C(=O)O [reference compound] (H-KLANIQCLCL-OH),IC50,[3],97 nM
CC[C@H](C)[C@H](NC(=O)[C@H](CC(N)=O)NC(=O)[C@H](C)NC(=O)[C@H](CC(C)C)NC(=O)[C@@H](N)CCCCN)C(=O)N[C@@H](CCC(N)=O)C(=O)N[C@@H](CS)C(=O)N1CCC[C@H]1C(=O)N[C@@H](CS)C(=O)N[C@@H](CC(C)C)C(=O)O [reference compound] (H-KLANIQCPCL-OH),IC50,[3],121 nM
CC(C)C[C@H](NC(=O)[C@@H](N)CCCNC(=N)N)C(=O)N[C@@H](CCCNC(=N)N)C(=O)N1CCC[C@H]1C(=O)N[C@@H](CC(C)C)C(=O)N[C@@H](CS)C(=O)N[C@@H](CS)C(=O)N[C@H](C(=O)N[C@@H](C)C(=O)O)[C@@H](C)O [reference compound] (H-RLRPLCCTA-OH),IC50,[3],8230 nM
CC(C)C[C@H](NC(=O)[C@@H](N)[C@@H](C)O)C(=O)N[C@@H](CO)C(=O)N[C@@H](CO)C(=O)N[C@@H](CCCNC(=N)N)C(=O)N[C@H](C(=O)N[C@@H](CS)C(=O)N[C@@H](CS)C(=O)N[C@@H](CCCNC(=N)N)C(=O)N[C@H](C(=O)O)[C@@H](C)O)C(C)C [reference compound] (H-TLSSRVCCRT-OH),IC50,[3],2780 nM
ALARGAGTVPL [reference compound],IC50,[3],29 nM
ALEGSLQKR,IC50,[4],> 40000 nM
ALEGSLQKRG,IC50,[4],> 40000 nM
ALGDLFQSI [reference compound],IC50,[3],76 nM
ALTAVAEEV [reference compound],IC50,[3],1310 nM
ALWGPDPAAA [reference compound],IC50,[3],1010 nM
AVAANIVLTV [reference compound],IC50,[3],575 nM
CGERGFFYT,IC50,[4],> 40000 nM
CGERGFFYTP,IC50,[4],> 40000 nM
CGERGYFYT,IC50,read-out: A*02:01 binding (IC50 nM) Modified,26300 nM
CGERGYFYTP,IC50,[2],> 40000 nM
CGSHLVEAL [CGSHLVEAL],IC50,[4],> 40000 nM
CGSHLVEALY,IC50,[5],33700 nM
DEHLCGSHL,IC50,[2],> 40000 nM
DEHLCGSHLV,IC50,[2],> 40000 nM
EALYLVCGE,IC50,[6],12000 nM
EALYLVCGER,IC50,[5],10100 nM
EGSLQKRGI,IC50,[4],> 40000 nM
EGSLQKRGIV,IC50,[4],> 40000 nM
EHLCGSHLV,IC50,[1],7240 nM
EHLCGSHLVE,IC50,[2],> 40000 nM
ELAEYLYNI [reference compound],IC50,[3],637 nM
ERGYFYTPK,IC50,[2],> 40000 nM
ERGYFYTPKT,IC50,[2],> 40000 nM
ERGYYYTPK,IC50,[7],> 40000 nM
ERGYYYTPKT,IC50,[1],5730 nM
FFYTPKTRR,IC50,[4],> 40000 nM
FFYTPKTRRE,IC50,[4],> 40000 nM
FIQVYEVERA [reference compound],IC50,[3],7020 nM
FLFAVGFYL [reference compound],IC50,[3],1.1 nM
"FLIVLSVAL [FLIVLSVAL, reference compound]",IC50,[3],26 nM
FLLSLFSLWL [reference compound],IC50,[3],16 nM
FLQDVMNIL [reference compound],IC50,[3],70 nM
FLWSVFMLI [reference compound],IC50,[3],26 nM
FLWSVFWLI [reference compound],IC50,[3],55 nM
FMTSSWWGA [reference compound],IC50,[3],378 nM
FMTSSWWRA [reference compound],IC50,[3],101 nM
FMTSSWWRAPL [reference compound],IC50,[3],84 nM
FVDEHLCGS,IC50,[2],> 40000 nM
FVDEHLCGSH,IC50,[2],> 40000 nM
FVNQHLCGS,IC50,[4],> 40000 nM
FVNQHLCGSH,IC50,[6],13200 nM
FYTPKTRREA,IC50,[4],> 40000 nM
GERGFFYTP,IC50,[4],> 40000 nM
GERGYFYTP,IC50,[2],> 40000 nM
GERGYFYTPK,IC50,[2],> 40000 nM
GERGYYYTP,IC50,[7],> 40000 nM
GERGYYYTPK,IC50,[2],> 40000 nM
GIPPAPHGV [reference compound],IC50,[3],219 nM
GIPPAPRGV [reference compound],IC50,[3],1230 nM
GLLQVHHSCPL [reference compound],IC50,[3],5.8 nM
GLPAGAAAQA [reference compound],IC50,[3],530 nM
GSHLVEALYL,IC50,[6],1770 nM
GSLQKRGIV,IC50,[6],32700 nM

# Reference: article PMC5863483, “Low HLA binding of diabetes-associated CD8+ T-cell epitopes is increased by post translational modifications” (BMC Immunology, 2018)
